In ChEMBL document CHEMBL3351492, “Novel 3,6-bis(imidazolidine)acridines as effective photosensitizers for photodynamic therapy” (Bioorg Med Chem, 2014):
Activity calls are given as the source filed them. The calls are words filed in the database; no cut-off is given here.

How the values were obtained:
A2780 [1] = assay: Cytotoxicity against human A2780 cells assessed as inhibition of cell viability for 48 hrs in dark by MTT assay; type: functional, cell-based; details: A2780, 48 h
A2780 [2] = assay: Cytotoxicity against human A2780 cells assessed as inhibition of cell viability for 48 hrs in 1.05 J/cm'2 UV-A irradiation by MTT assay; type: functional, cell-based; details: A2780, light or radiation study
A2780 [3] = assay: Cytotoxicity against human A2780 cells assessed as inhibition of cell viability for 72 hrs in dark by MTT assay; type: functional, cell-based; details: A2780, 72 h
A2780 [4] = assay: Cytotoxicity against human A2780 cells assessed as inhibition of cell viability for 72 hrs in 1.05 J/cm'2 UV-A irradiation by MTT assay; type: functional, cell-based; details: A2780, light or radiation study
L1210 [5] = assay: Cytotoxicity against mouse L1210 cells assessed as inhibition of cell viability for 48 hrs in 1.05 J/cm'2 UV-A irradiation by MTT assay; type: functional, cell-based; details: L1210, light or radiation study
L1210 [6] = assay: Cytotoxicity against mouse L1210 cells assessed as inhibition of cell viability for 72 hrs in 1.05 J/cm'2 UV-A irradiation by MTT assay; type: functional, cell-based; details: L1210, light or radiation study
A2780 [7] = assay: Induction of oxidative stress in human A2780 cells assessed as reactive oxygen species production at 0.5 uM for 1 hr in 1.05 J/cm'2 UV-A irradiation by DHE assay; type: functional, cell-based
A2780 [8] = assay: Genotoxicity in human A2780 cells assessed as DNA damage at 0.05 to 1 uM for 1 hr in 1.05 J/cm'2 UV-A irradiation measured after 12 hrs by comet assay; type: toxicity, cell-based; details: a2780, 1 h
A2780 [9] = assay: Drug uptake in human A2780 cell autophagic vacoules at 0.5 uM irradiated for 1 hr followed by incubated with LysoTracker relative to non-irradiated cellsin presence of MDC; type: ADME, cell-based; details: a2780, 1 h
[10] = Cytotoxicity against mouse NIH/3T3 cells assessed as inhibition of cell viability for 48 hrs in dark by MTT assay; type: cell-based; details: NIH3T3, 48 h
[11] = Cytotoxicity against mouse NIH/3T3 cells assessed as inhibition of cell viability for 48 hrs in 1.05 J/cm'2 UV-A irradiation by MTT assay; type: cell-based; details: NIH3T3, light or radiation study
[12] = Cytotoxicity against mouse NIH/3T3 cells assessed as inhibition of cell viability for 72 hrs in dark by MTT assay; type: cell-based; details: NIH3T3, 72 h
[13] = Cytotoxicity against mouse NIH/3T3 cells assessed as inhibition of cell viability for 72 hrs in 1.05 J/cm'2 UV-A irradiation by MTT assay; type: cell-based; details: NIH3T3, light or radiation study
A2780 [14] = assay: Drug uptake in human A2780 cell nucleus at 3 uM irradiated for 1 hr followed by incubated with 0.1 uM SytoRed for 35 mins; type: ADME, cell-based; details: a2780, 1 h
A2780 [15] = assay: Drug uptake in human A2780 cell lysosome assessed per focused cells at 3 uM irradiated for 1 hr followed by incubated with LysoTracker; type: ADME, cell-based; details: a2780, 1 h
A2780 [16] = assay: Drug uptake in human A2780 cell mitochondria assessed per focused cells at 3 uM irradiated for 1 hr followed by incubated with 0.1 uM MitoRed for 15 mins; type: ADME, cell-based; details: a2780, 1 h
A2780 [17] = assay: Induction of apoptosis in human A2780 cells assessed as effect on cell morphology at 1 uM for 1 hr in dark measured after 4 hrs by fluorescence microscopy; type: functional, cell-based
A2780 [18] = assay: Induction of apoptosis in human A2780 cells assessed as volume and condensation of DNA chromatin at 1 uM for 1 hr in 1.05 J/cm'2 UV-A irradiation measured after 4 hrs by fluorescence microscopy; type: functional, cell-based
A2780 [19] = assay: Induction of apoptosis in human A2780 cells assessed as blebbing of cell membrane at 1 uM for 1 hr in 1.05 J/cm'2 UV-A irradiation measured after 24 hrs by fluorescence microscopy; type: functional, cell-based
A2780 [20] = assay: Induction of apoptosis in human A2780 cells assessed as DNA ladder formation at 1 uM for 1 hr in 1.05 J/cm'2 UV-A irradiation measured after 4 hrs by agarose gel; type: functional, cell-based
A2780 [21] = assay: Induction of apoptosis in human A2780 cells assessed as DNA ladder formation at 1 uM after 4 hrs in dark by agarose gel; type: functional, cell-based
A2780 [22] = assay: Cell cycle arrest in human A2780 cells assessed as cells at sub G0 phase at 1 uM after 4 hrs in dark by PI staining/flow cytometry; type: functional
A2780 [23] = assay: Cell cycle arrest in human A2780 cells assessed as cells at sub G0 phase at 1 uM for 1 hr in 1.05 J/cm'2 UV-A irradiation measured after 4 hrs by PI staining/flow cytometry; type: functional
A2780 [24] = assay: Cell cycle arrest in human A2780 cells assessed as cells at S phase at 1 uM for 1 hr in 1.05 J/cm'2 UV-A irradiation measured after 4 hrs by PI staining/flow cytometry; type: functional
A2780 [25] = assay: Drug uptake in human A2780 cell nucleus at 0.5 uM irradiated for 1 hr followed by incubated with 0.1 uM SytoRed for 35 mins; type: ADME, cell-based; details: a2780, 1 h
A2780 [26] = assay: Drug uptake in human A2780 cell mitochondria assessed per focused cells at 0.5 uM irradiated for 1 hr followed by incubated with 0.1 uM MitoRed for 15 mins; type: ADME, cell-based; details: a2780, 1 h
A2780 [27] = assay: Drug uptake in human A2780 cell mitochondria assessed per focused cells at 0.5 uM for 1 hr in dark by incubated with 0.1 uM MitoRed for 15 mins; type: ADME, cell-based; details: a2780, 1 h
A2780 [28] = assay: Drug uptake in human A2780 cell lysosome at 0.5 uM irradiated for 1 hr followed by incubated with LysoTracker relative to non-irradiated cells; type: ADME, cell-based; details: a2780, 1 h

Row | SMILES | IC50 (A2780 [1]) [nM] | IC50 (A2780 [2]) [nM] | IC50 (A2780 [3]) [nM] | IC50 (A2780 [4]) [nM] | IC50 (L1210 [5]) [nM] | IC50 (L1210 [6]) [nM] | Activity (A2780 [7]) | Activity (A2780 [8]) | also measured
1 | Nc1ccc2cc3ccc(N)cc3nc2c1 | 480 | 330 | 180 | 100 | – | – | – | – | –
2 | CCCCCCN1C(=O)CN/C1=N\c1ccc2cc3ccc(/N=C4\NCC(=O)N4CCCCCC)cc3nc2c1.Cl | 15700 | 1580 | 9580 | 1260 | 770 | 640 | Active | Non-toxic | –
3 | CCCCCN1C(=O)CN/C1=N\c1ccc2cc3ccc(/N=C4\NCC(=O)N4CCCCC)cc3nc2c1.Cl | 19500 | 1430 | 13800 | 1090 | 640 | 590 | Active | Non-toxic | Drug uptake (A2780 [9]): Active; IC50 [10]: > 50000 nM; IC50 [11]: > 30000 nM; IC50 [12]: > 50000 nM; IC50 [13]: 28400 nM; Drug uptake (A2780 [14]): Not Active; Drug uptake (A2780 [15]): 6%; Drug uptake (A2780 [16]): 7%; Activity (A2780 [17]): inactive; Activity (A2780 [18]): Active; Activity (A2780 [19]): Active; Activity (A2780 [20]): Active; Activity (A2780 [21]): inactive; Activity (A2780 [22]): 1.42%; Activity (A2780 [23]): 7.69%; Activity (A2780 [24]): 43%; Drug uptake (A2780 [25]): Not Active; Drug uptake (A2780 [26]): 2%; Drug uptake (A2780 [27]): 7%; Drug uptake (A2780 [28]): 24%
